Measured values reported in PMC6792352, “Limited Chemical Structural Diversity Found to Modulate Thyroid Hormone Receptor in the Tox21 Chemical Library” (Environmental Health Perspectives, 2019).
Structures can show the parent of a compound that is named as a salt. Where two headings read alike, the source gives them in different places.

Columns and labels:
in vitro = settings: rat, gh3-tre-luc cells, AC50 (uM) modified / 1000
GH3-TRE-Luc cell line = settings: read-out: AC50 (uM) modified / 1000, viability, 1 nM T3 present, 24 h

## CCCCC/C=C\C/C=C\CCCCCCCC(=O)O [Linoleic acid]
In vitro
  CC50 at 24 h: > 90 µM
GH3-TRE-Luc cell line; Tox21_110001=Tox21_303080
  CC50: 58.3 µM

## Nc1ccc(N)cc1 [1,4-Benzenediamine]
In vitro
  CC50 at 24 h: 68.8 µM
GH3-TRE-Luc cell line; Tox21_110001=Tox21_302943
  CC50: 68.9 µM

## C=C1CC[C@H](O)C/C1=C/C=C1\CCC[C@]2(C)[C@@H]([C@H](C)CCCC(C)C)CC[C@@H]12 [Vitamin D3]
In vitro
  CC50 at 24 h: 44.3 µM
GH3-TRE-Luc cell line; Tox21_110001=Tox21_111578
  CC50: 24.3 µM

## Oc1ccc(Cl)cc1Sc1cc(Cl)ccc1O [Fenticlor]
In vitro
  CC50 at 24 h: 8.49 µM
GH3-TRE-Luc cell line; Tox21_110001=Tox21_110031
  CC50: 11.6 µM

## CCCCCCCOC(=O)c1ccc(O)cc1 [Heptylparaben]
In vitro
  CC50 at 24 h: 47.8 µM
GH3-TRE-Luc cell line; Tox21_110001=Tox21_303458
  CC50: 50.7 µM

## CC(C)(C)C(O)(CCc1ccc(Cl)cc1)Cn1cncn1 (stereo not drawn) [Tebuconazole]
In vitro
  CC50 at 24 h: 64.3 µM
GH3-TRE-Luc cell line; Tox21_110001=Tox21_300487
  CC50: 57.7 µM

## CCCCCCCCCc1ccc(O)cc1 [4-Nonylphenol]
In vitro
  CC50 at 24 h: 41.5 µM
GH3-TRE-Luc cell line; Tox21_110001=Tox21_303647
  CC50: 42.8 µM

## CCOC(=O)C1=C[C@]2(CC)CCCN3CCc4c(n1c1ccccc41)[C@@H]32 [Vinpocetine]
In vitro
  CC50 at 24 h: 22.7 µM
GH3-TRE-Luc cell line; Tox21_110001=Tox21_110839
  CC50: 12 µM

## CC(C)(C)c1ccc(O)c(O)c1 [4-tert-Butylcatechol]
In vitro
  CC50 at 24 h: 43 µM
GH3-TRE-Luc cell line; Tox21_110001=Tox21_400003
  CC50: 49.3 µM

## Cc1cc(C2(c3cc(C)c(O)cc3C)OS(=O)(=O)c3ccccc32)c(C)cc1O [p-Xylenol blue]
In vitro
  CC50 at 24 h: 56.6 µM
GH3-TRE-Luc cell line; Tox21_110001=Tox21_303062
  CC50: 47.5 µM

## Cc1ccc(/C=C2/C(=O)C3(C)CCC2C3(C)C)cc1 (stereo not drawn) [Enzacamene]
In vitro
  CC50 at 24 h: > 90 µM
GH3-TRE-Luc cell line; Tox21_110001=Tox21_112423
  CC50: 46.5 µM

## COC(=O)C1=C(C)NC(C)=C(C(=O)OCC(C)C)C1c1ccccc1[N+](=O)[O-] (stereo not drawn) [Nisoldipine]
In vitro
  CC50 at 24 h: 51.4 µM
GH3-TRE-Luc cell line; Tox21_110001=Tox21_112251
  CC50: 37.2 µM

## CCCN(CCC)c1c([N+](=O)[O-])cc(C(F)(F)F)cc1[N+](=O)[O-] [Trifluralin]
In vitro
  CC50 at 24 h: > 90 µM
GH3-TRE-Luc cell line; Tox21_110001=Tox21_300918
  CC50: 62.5 µM

## CC(=O)Oc1ccccc1C(=O)Nc1ncc([N+](=O)[O-])s1 [Nitazoxanide]
In vitro
  CC50 at 24 h: 23.7 µM
GH3-TRE-Luc cell line; Tox21_110001=Tox21_111018
  CC50: 27.7 µM

## O=C(Nc1ccccc1SSc1ccccc1NC(=O)c1ccccc1)c1ccccc1 [2,2'-Dibenzoylaminodiphenyl disulfide]
In vitro
  CC50 at 24 h: 89.8 µM
GH3-TRE-Luc cell line; Tox21_110001=Tox21_303466
  CC50: 72.6 µM

## O=C(O)C1=NN(c2ccc(S(=O)(=O)O)cc2)C(=O)C1N=Nc1ccc(S(=O)(=O)O)cc1 (stereo not drawn) [FD&C Yellow 5]
In vitro
  CC50 at 24 h: > 50 µM
GH3-TRE-Luc cell line; Tox21_110001=Tox21_201539
  CC50: 43.1 µM
GH3-TRE-Luc cell line; Tox21_110001=Tox21_300554
  CC50: 61.1 µM

## CC(C)N(C(=O)CCl)c1ccccc1 [Propachlor]
In vitro
  CC50 at 24 h: 48.7 µM
GH3-TRE-Luc cell line; Tox21_110001=Tox21_303036
  CC50: 54.1 µM

## CCc1cc(Cl)c(OC)c(C(=O)NC[C@@H]2CCCN2CC)c1O [Eticlopride hydrochloride]
In vitro
  CC50 at 24 h: 19.6 µM
GH3-TRE-Luc cell line; Tox21_110001=Tox21_111229
  CC50: 25.3 µM
GH3-TRE-Luc cell line; Tox21_110001=Tox21_113585
  CC50: 33.6 µM

## C#CCOS(=O)OC1CCCCC1Oc1ccc(C(C)(C)C)cc1 (stereo not drawn) [Propargite]
In vitro
  CC50 at 24 h: 5.83 µM
GH3-TRE-Luc cell line; Tox21_110001=Tox21_300805
  CC50: 7.01 µM

## CC1=C(/C=C/C(C)=C/C=C/C(C)=C/C(=O)Nc2ccc(O)cc2)C(C)(C)CCC1 [4-Hydroxyphenyl retinamide]
In vitro
  CC50 at 24 h: 10 µM
GH3-TRE-Luc cell line; Tox21_110001=Tox21_111007
  CC50: 6.39 µM

## C=CC(=O)OCCOCCOCCOCCOC(=O)C=C [Tetraethylene glycol diacrylate]
In vitro
  CC50 at 24 h: 17.7 µM
GH3-TRE-Luc cell line; Tox21_110001=Tox21_202993
  CC50: 17.8 µM

## Cc1ccc(O)c(C(C)(C)C)c1 [2-tert-Butyl-4-methylphenol]
In vitro
  CC50 at 24 h: 89.6 µM
GH3-TRE-Luc cell line; Tox21_110001=Tox21_303003
  CC50: 69.9 µM

## O=C(O[C@@H]1Cc2c(O)cc(O)cc2O[C@@H]1c1cc(O)c(O)c(O)c1)c1cc(O)c(O)c(O)c1 [(-)-Epigallocatechin gallate]
In vitro
  CC50 at 24 h: 48.4 µM
GH3-TRE-Luc cell line; Tox21_110001=Tox21_303457
  CC50: 50.7 µM

## CC(=O)OC/C=C(C)/C=C/C=C(C)/C=C/C1=C(C)CCCC1(C)C [Retinol acetate]
In vitro
  CC50 at 24 h: > 50 µM
GH3-TRE-Luc cell line; Tox21_110001=Tox21_201423
  CC50: 65.7 µM

## CC/C(=C(/CC)c1ccc(O)cc1)c1ccc(O)cc1 [Diethylstilbestrol]
In vitro
  CC50 at 24 h: 55.5 µM
GH3-TRE-Luc cell line; Tox21_110001=Tox21_300526
  CC50: 28.7 µM

## CCCCC(CC)COC(=O)c1ccc(O)cc1 (stereo not drawn) [2-Ethylhexylparaben]
In vitro
  CC50 at 24 h: 32.1 µM
GH3-TRE-Luc cell line; Tox21_110001=Tox21_302793
  CC50: 41.7 µM

## Nc1ccc(O)cc1 [4-Aminophenol]
In vitro
  CC50 at 24 h: 16.6 µM
GH3-TRE-Luc cell line; Tox21_110001=Tox21_113242
  CC50: 9.32 µM
GH3-TRE-Luc cell line; Tox21_110001=Tox21_201030
  CC50: 17.1 µM

## CC(C)(C)C(=O)C1C(=O)c2ccccc2C1=O [Pindone]
In vitro
  CC50 at 24 h: 60.9 µM
GH3-TRE-Luc cell line; Tox21_110001=Tox21_303317
  CC50: 71.8 µM

## CCCCCCCCCCCCOC(=O)c1cc(O)c(O)c(O)c1 [Lauryl gallate]
In vitro
  CC50 at 24 h: 2.89 µM
GH3-TRE-Luc cell line; Tox21_110001=Tox21_303487
  CC50: 3.66 µM

## O=[N+]([O-])c1cc(N(CCO)CCO)ccc1NCCO [HC Blue 2]
In vitro
  CC50 at 24 h: > 90 µM
GH3-TRE-Luc cell line; Tox21_110001=Tox21_302947
  CC50: 91.6 µM

## CC(C)(c1ccccc1)c1ccc(O)cc1 [4-Cumylphenol]
In vitro
  CC50 at 24 h: 45.2 µM
GH3-TRE-Luc cell line; Tox21_110001=Tox21_300056
  CC50: 51 µM

## O=C(c1cc(O)c(O)c(O)c1)c1ccc(O)c(O)c1O [Exifone]
In vitro
  CC50 at 24 h: 43.6 µM
GH3-TRE-Luc cell line; Tox21_110001=Tox21_303559
  CC50: 62.8 µM

## CCc1cc(C(C)(C)C)c(O)c(C(C)(C)C)c1 [2,6-Di-tert-butyl-4-ethylphenol]
In vitro
  CC50 at 24 h: 72.5 µM
GH3-TRE-Luc cell line; Tox21_110001=Tox21_303397
  CC50: 85.5 µM

## ClC1=C(Cl)C(Cl)(Cl)C(Cl)=C1Cl [Hexachlorocyclopentadiene]
In vitro
  CC50 at 24 h: > 90 µM
GH3-TRE-Luc cell line; Tox21_110001=Tox21_302780
  CC50: 58 µM

## CN(C)CCOc1ccc(/C(=C(/CCCl)c2ccccc2)c2ccccc2)cc1 [Toremifene citrate]
In vitro
  CC50 at 24 h: 8.87 µM
GH3-TRE-Luc cell line; Tox21_110001=Tox21_111877
  CC50: 11.4 µM

## Cc1cc(N=Nc2ccccc2C)ccc1N [2-Amino-5-azotoluene]
In vitro
  CC50 at 24 h: 50.9 µM
GH3-TRE-Luc cell line; Tox21_110001=Tox21_300300
  CC50: 40.4 µM

## COC1=CC(=O)C[C@@H](C)[C@]12Oc1c(Cl)c(OC)cc(OC)c1C2=O [Griseofulvin]
In vitro
  CC50 at 24 h: > 90 µM
GH3-TRE-Luc cell line; Tox21_110001=Tox21_303005
  CC50: 49.1 µM

## CCOc1cc(Oc2ccc(C(F)(F)F)cc2Cl)ccc1[N+](=O)[O-] [Oxyfluorfen]
In vitro
  CC50 at 24 h: 79.3 µM
GH3-TRE-Luc cell line; Tox21_110001=Tox21_300827
  CC50: 50 µM

## Cc1c(C(=O)O)c(O)cc2c1C(=O)c1c(O)c([C@@H]3O[C@H](CO)[C@@H](O)[C@H](O)[C@H]3O)c(O)c(O)c1C2=O [Carminic acid]
In vitro
  CC50 at 24 h: 55.9 µM
GH3-TRE-Luc cell line; Tox21_110001=Tox21_300294
  CC50: 56.2 µM
